Laboratory results from the NIST ThermoML archive (doi:10.1016/j.jct.2015.11.023).
± gives the expanded uncertainty stated by the source.

Legend:
[1] = refractive index (Na D-line) (dimensionless); wn = mass fraction of the nth substance listed; details: 100 kPa, Liquid, Standard Abbe refractometry
[2] = wn = mass fraction of the nth substance listed; details: for surface tension liquid-gas: Maximal bubble pressure; for mass density: 100 kPa, Liquid, Vibrating tube method

CCCC[n+]1ccccc1.N#C[N-]C#N [1-butylpyridinium dicyanamide] + O
Details | mass density [kg/m3] | refractive index | surface tension liquid-gas [mN/m]
[1], 303.15 K, w2 = 0.00176 | – | 1.5323 ± 0.003 | –
[1], 303.15 K, w2 = 0.00319 | – | 1.5321 ± 0.003 | –
[1], 303.15 K, w2 = 0.00477 | – | 1.5319 ± 0.003 | –
[1], 303.15 K, w2 = 0.00627 | – | 1.5317 ± 0.003 | –
[1], 303.15 K, w2 = 0.0078 | – | 1.5315 ± 0.003 | –
[1], 308.15 K, w2 = 0.00176 | – | 1.5306 ± 0.003 | –
[1], 308.15 K, w2 = 0.00319 | – | 1.5303 ± 0.003 | –
[1], 308.15 K, w2 = 0.00477 | – | 1.5301 ± 0.003 | –
[1], 308.15 K, w2 = 0.00627 | – | 1.5298 ± 0.003 | –
[1], 308.15 K, w2 = 0.0078 | – | 1.5296 ± 0.003 | –
[1], 313.15 K, w2 = 0.00176 | – | 1.5283 ± 0.003 | –
[1], 313.15 K, w2 = 0.00319 | – | 1.5281 ± 0.003 | –
[1], 313.15 K, w2 = 0.00477 | – | 1.5279 ± 0.003 | –
[1], 313.15 K, w2 = 0.00627 | – | 1.5277 ± 0.003 | –
[1], 313.15 K, w2 = 0.0078 | – | 1.5275 ± 0.003 | –
[1], 318.15 K, w2 = 0.00176 | – | 1.5267 ± 0.003 | –
[1], 318.15 K, w2 = 0.00319 | – | 1.5265 ± 0.003 | –
[1], 318.15 K, w2 = 0.00477 | – | 1.5262 ± 0.003 | –
[1], 318.15 K, w2 = 0.00627 | – | 1.526 ± 0.003 | –
[1], 318.15 K, w2 = 0.0078 | – | 1.5258 ± 0.003 | –
[1], 323.15 K, w2 = 0.00176 | – | 1.525 ± 0.003 | –
[1], 323.15 K, w2 = 0.00319 | – | 1.5248 ± 0.003 | –
[1], 323.15 K, w2 = 0.00477 | – | 1.5245 ± 0.003 | –
[1], 323.15 K, w2 = 0.00627 | – | 1.5243 ± 0.003 | –
[1], 323.15 K, w2 = 0.0078 | – | 1.5241 ± 0.003 | –
[1], 328.15 K, w2 = 0.00176 | – | 1.5234 ± 0.003 | –
[1], 328.15 K, w2 = 0.00319 | – | 1.5232 ± 0.003 | –
[1], 328.15 K, w2 = 0.00477 | – | 1.523 ± 0.003 | –
[1], 328.15 K, w2 = 0.00627 | – | 1.5227 ± 0.003 | –
[1], 328.15 K, w2 = 0.0078 | – | 1.5225 ± 0.003 | –
[1], 333.15 K, w2 = 0.00176 | – | 1.5214 ± 0.003 | –
[1], 333.15 K, w2 = 0.00319 | – | 1.5212 ± 0.003 | –
[1], 333.15 K, w2 = 0.00477 | – | 1.5209 ± 0.003 | –
[1], 333.15 K, w2 = 0.00627 | – | 1.5207 ± 0.003 | –
[1], 333.15 K, w2 = 0.0078 | – | 1.5204 ± 0.003 | –
[1], 338.15 K, w2 = 0.00176 | – | 1.5199 ± 0.003 | –
[1], 338.15 K, w2 = 0.00319 | – | 1.5197 ± 0.003 | –
[1], 338.15 K, w2 = 0.00477 | – | 1.5194 ± 0.003 | –
[1], 338.15 K, w2 = 0.00627 | – | 1.5192 ± 0.003 | –
[1], 338.15 K, w2 = 0.0078 | – | 1.5189 ± 0.003 | –
[2], 303.15 K, w2 = 0.00123 | 1065.65 ± 2 | – | –
[2], 303.15 K, w2 = 0.00176 | – | – | 55.8 ± 0.5
[2], 303.15 K, w2 = 0.00269 | 1065.52 ± 2 | – | –
[2], 303.15 K, w2 = 0.0033 | – | – | 56.2 ± 0.5
[2], 303.15 K, w2 = 0.00417 | 1065.37 ± 2 | – | –
[2], 303.15 K, w2 = 0.00478 | – | – | 56.5 ± 0.5
[2], 303.15 K, w2 = 0.00567 | 1065.24 ± 2 | – | –
[2], 303.15 K, w2 = 0.00628 | – | – | 56.8 ± 0.5
[2], 303.15 K, w2 = 0.00714 | 1065.12 ± 2 | – | –
[2], 303.15 K, w2 = 0.0078 | – | – | 57.1 ± 0.5
[2], 308.15 K, w2 = 0.00123 | 1062.58 ± 2 | – | –
[2], 308.15 K, w2 = 0.00176 | – | – | 55.5 ± 0.5
[2], 308.15 K, w2 = 0.00269 | 1062.45 ± 2 | – | –
[2], 308.15 K, w2 = 0.0033 | – | – | 55.9 ± 0.5
[2], 308.15 K, w2 = 0.00417 | 1062.32 ± 2 | – | –
[2], 308.15 K, w2 = 0.00478 | – | – | 56.2 ± 0.5
[2], 308.15 K, w2 = 0.00567 | 1062.16 ± 2 | – | –
[2], 308.15 K, w2 = 0.00628 | – | – | 56.5 ± 0.5
[2], 308.15 K, w2 = 0.00714 | 1062.04 ± 2 | – | –
[2], 308.15 K, w2 = 0.0078 | – | – | 56.8 ± 0.5
[2], 313.15 K, w2 = 0.00123 | 1059.54 ± 2 | – | –
[2], 313.15 K, w2 = 0.00176 | – | – | 55.2 ± 0.5
[2], 313.15 K, w2 = 0.00269 | 1059.41 ± 2 | – | –
[2], 313.15 K, w2 = 0.0033 | – | – | 55.6 ± 0.5
[2], 313.15 K, w2 = 0.00417 | 1059.23 ± 2 | – | –
[2], 313.15 K, w2 = 0.00478 | – | – | 55.9 ± 0.5
[2], 313.15 K, w2 = 0.00567 | 1059.11 ± 2 | – | –
[2], 313.15 K, w2 = 0.00628 | – | – | 56.2 ± 0.5
[2], 313.15 K, w2 = 0.00714 | 1058.97 ± 2 | – | –
[2], 313.15 K, w2 = 0.0078 | – | – | 56.5 ± 0.5
[2], 318.15 K, w2 = 0.00123 | 1056.51 ± 2 | – | –
[2], 318.15 K, w2 = 0.00176 | – | – | 54.9 ± 0.5
[2], 318.15 K, w2 = 0.00269 | 1056.38 ± 2 | – | –
[2], 318.15 K, w2 = 0.0033 | – | – | 55.2 ± 0.5
[2], 318.15 K, w2 = 0.00417 | 1056.24 ± 2 | – | –
[2], 318.15 K, w2 = 0.00478 | – | – | 55.5 ± 0.5
[2], 318.15 K, w2 = 0.00567 | 1056.07 ± 2 | – | –
[2], 318.15 K, w2 = 0.00628 | – | – | 55.8 ± 0.5
[2], 318.15 K, w2 = 0.00714 | 1055.94 ± 2 | – | –
[2], 318.15 K, w2 = 0.0078 | – | – | 56.2 ± 0.5
[2], 323.15 K, w2 = 0.00123 | 1053.5 ± 2 | – | –
[2], 323.15 K, w2 = 0.00176 | – | – | 54.6 ± 0.5
[2], 323.15 K, w2 = 0.00269 | 1053.36 ± 2 | – | –
[2], 323.15 K, w2 = 0.0033 | – | – | 54.9 ± 0.5
[2], 323.15 K, w2 = 0.00417 | 1053.23 ± 2 | – | –
[2], 323.15 K, w2 = 0.00478 | – | – | 55.2 ± 0.5
[2], 323.15 K, w2 = 0.00567 | 1053.04 ± 2 | – | –
[2], 323.15 K, w2 = 0.00628 | – | – | 55.5 ± 0.5
[2], 323.15 K, w2 = 0.00714 | 1052.91 ± 2 | – | –
[2], 323.15 K, w2 = 0.0078 | – | – | 55.8 ± 0.5
[2], 328.15 K, w2 = 0.00123 | 1050.5 ± 2 | – | –
[2], 328.15 K, w2 = 0.00176 | – | – | 54.3 ± 0.5
[2], 328.15 K, w2 = 0.00269 | 1050.36 ± 2 | – | –
[2], 328.15 K, w2 = 0.0033 | – | – | 54.6 ± 0.5
[2], 328.15 K, w2 = 0.00417 | 1050.22 ± 2 | – | –
[2], 328.15 K, w2 = 0.00478 | – | – | 54.9 ± 0.5
[2], 328.15 K, w2 = 0.00567 | 1050.05 ± 2 | – | –
[2], 328.15 K, w2 = 0.00628 | – | – | 55.2 ± 0.5
[2], 328.15 K, w2 = 0.00714 | 1049.92 ± 2 | – | –
[2], 328.15 K, w2 = 0.0078 | – | – | 55.5 ± 0.5
[2], 333.15 K, w2 = 0.00123 | 1047.53 ± 2 | – | –
[2], 333.15 K, w2 = 0.00176 | – | – | 54 ± 0.5
[2], 333.15 K, w2 = 0.00269 | 1047.4 ± 2 | – | –
[2], 333.15 K, w2 = 0.0033 | – | – | 54.3 ± 0.5
[2], 333.15 K, w2 = 0.00417 | 1047.21 ± 2 | – | –
[2], 333.15 K, w2 = 0.00478 | – | – | 54.6 ± 0.5
[2], 333.15 K, w2 = 0.00567 | 1047.07 ± 2 | – | –
[2], 333.15 K, w2 = 0.00628 | – | – | 54.9 ± 0.5
[2], 333.15 K, w2 = 0.00714 | 1046.94 ± 2 | – | –
[2], 333.15 K, w2 = 0.0078 | – | – | 55.2 ± 0.5
[2], 338.15 K, w2 = 0.00123 | 1044.55 ± 2 | – | –
[2], 338.15 K, w2 = 0.00176 | – | – | 53.7 ± 0.5
[2], 338.15 K, w2 = 0.00269 | 1044.42 ± 2 | – | –
[2], 338.15 K, w2 = 0.0033 | – | – | 54 ± 0.5
[2], 338.15 K, w2 = 0.00417 | 1044.27 ± 2 | – | –
[2], 338.15 K, w2 = 0.00478 | – | – | 54.3 ± 0.5
[2], 338.15 K, w2 = 0.00567 | 1044.09 ± 2 | – | –
[2], 338.15 K, w2 = 0.00628 | – | – | 54.5 ± 0.5
[2], 338.15 K, w2 = 0.00714 | 1043.94 ± 2 | – | –
[2], 338.15 K, w2 = 0.0078 | – | – | 54.8 ± 0.5
